In US20240252508A1, “Novel glucose uptake inhibitors for use in the treatment of cancer” (NOVELYEAST BV, priority 2021, published 2024):
Where two headings read alike, the source gives them in different places.

Tests used:
[1] = system: U266 multiple myeloma cell line; test: U266 proliferation (cell count); format: cell-based, human; settings: 25 μM, 4 days, RPMI with 1 mM glucose
Method: a. Cell count of the U266 multiple myeloma cell line after 4 days of growth on RPMI medium with 1 mM glucose. Cells were treated with either DMSO or 25 μM of WBC-A, -15C, -4C or -11C. Glucose consumption (b.) or lactate secretion (c.) rates are shown for U266 cells incubated in RPMI medium supplemented with 1 mM glucose for 8 h.

[2] = system: KMS-12-PE multiple myeloma cells; test: Steady-state glucose consumption and lactate production in KMS-12-PE cells; format: cell-based, human; settings: 25 μM, 1 mM glucose, 8 h
Method: The influence of WBC compounds on the steady-state glucose consumption rate was studied in the A549 adenocarcinoma and KMS-12-PE multiple myeloma cell lines. As such, different parameters needed to be optimized depending on whether cells were adherent or in suspension. As such, A549 cells were incubated at 125,000 cells/well in a 24-well plate in 300 μL RPMI medium for 8 h. For the KMS-12-PE cell line, 100,000 cells/well were incubated in 100 μL RPMI medium in a 96-well plate for 8 h. Medium was collected, spun down and HPLC-analyzed for measuring glucose and lactate levels. Metabolite levels were corrected for cell number, which always varied little over the span of 8 h. For every condition, at least 4 technical repeats were included.

yeast Hxt7 = biological target: T1, yeast Hxt7 (Saccharomyces cerevisiae, UniProt P39004); test: Glucose uptake by Hxt7 expressed in hxt^0 erg4Δ (EBY.VW4000) yeast; format: cell-based, S. cerevisiae
T1 construct: HA (C); expressed in transfected cells; host or cells: S. cerevisiae RE700A (hxt0 gal2Δ) in A5; EBY.VW4000 (hxt0 erg4Δ) in A7; plasmid 'pHXT7'
T1 sequence (P39004 whole entry): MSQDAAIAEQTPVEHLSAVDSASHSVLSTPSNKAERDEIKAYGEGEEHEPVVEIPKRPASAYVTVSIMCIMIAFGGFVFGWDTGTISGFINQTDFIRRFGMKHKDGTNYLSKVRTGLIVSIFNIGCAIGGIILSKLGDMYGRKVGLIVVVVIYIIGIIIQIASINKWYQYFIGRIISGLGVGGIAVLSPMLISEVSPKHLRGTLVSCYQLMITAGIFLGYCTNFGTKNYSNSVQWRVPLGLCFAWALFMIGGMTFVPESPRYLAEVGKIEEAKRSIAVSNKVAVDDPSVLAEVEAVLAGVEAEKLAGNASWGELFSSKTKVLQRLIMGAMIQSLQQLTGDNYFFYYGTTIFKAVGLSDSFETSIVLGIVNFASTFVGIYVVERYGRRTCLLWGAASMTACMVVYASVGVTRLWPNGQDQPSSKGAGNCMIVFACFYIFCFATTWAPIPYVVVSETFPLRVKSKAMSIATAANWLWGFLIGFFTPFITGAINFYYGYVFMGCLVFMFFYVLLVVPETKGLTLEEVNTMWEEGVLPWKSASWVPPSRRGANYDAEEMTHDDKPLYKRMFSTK
Text: To assess whether WBC-A could inhibit glucose transport activity of the GLUT carriers, we expressed human GLUT1^V69M and GLUT4^V85M in a hxt^0 gal2Δ (RE700A) and hxt^0 erg4Δ (EBY.VW4000) strain, respectively. These strains are both deficient in glucose uptake due to absence of all active glucose transporters. For functional GLUT expression in yeast, specific mutations had to be introduced in both sequences, whereas for GLUT4, an additional ERG4 gene deletion was required^64,65,66.
Zero-trans uptake of radioactively labeled [U-^14C]glucose, [U-^14C]fructose or [U-^14C]galactose by S. cerevisiae cells was determined in accordance with previous studies^44,66. Cells were grown on different carbon sources depending on the experiment. For measuring glucose uptake activity in the tps1Δ and tps1Δ hxtA strains (FIG. 1b,c), cells were grown on YP medium containing 3% glycerol (measurement of 10s). Typically, for compound characterization and kinetic studies in wild type and tps1Δ strains, cells were (pre)grown on Complete Synthetic medium supplemented with 2% galactose (measurement of 10s). […] The loaded filter was transferred to a scintillation vial containing 3 mL liquid scintillation cocktail (Ultima-Flo M, Perkin Elmer) and counted using the Hidex 300 SL. […]

[3] = system: HXK2 hxk1Δ glk1Δ, hxk2Δ hxk1Δ glk1Δ and hxk2Δ hxk1Δ GLK1 cells; test: Sugar uptake in yeast strains with and without hexokinase activity; format: cell-based, S. cerevisiae; settings: for inhibition at 50 µM: Saccharomyces cerevisiae
Method: Zero-trans uptake of radioactively labeled [U-^14C]glucose, [U-^14C]fructose or [U-^14C]galactose by S. cerevisiae cells was determined in accordance with previous studies^44,66. Cells were grown on different carbon sources depending on the experiment. For measuring glucose uptake activity in the tps1Δ and tps1Δ hxtA strains (FIG. 1b,c), cells were grown on YP medium containing 3% glycerol (measurement of 10s). Typically, for compound characterization and kinetic studies in wild type and tps1Δ strains, cells were (pre)grown on Complete Synthetic medium supplemented with 2% galactose (measurement of 10s). In the experiments on the influence of hexokinase activity on the sugar uptake rate, the measurement duration was shortened to 5s and cells were always grown on YP medium containing 3% glycerol and 2% ethanol. After harvesting, cells were washed twice with ice-cold 25 mM MES-buffer pH 6, and resuspended in their respective medium without sugar to a final concentration of 45 mg (wet weight)/mL. The amount of added tracer was estimated to give a response close to at least 1000 counts per min in order to adequately counter background noise. Cells were first preincubated for 10 min at 30° C. with the compound to acclimate the cells to the temperature and to allow adequate interaction with the compound prior to uptake. Next, hexose sugar was mixed with the cell suspension, which was then incubated for 5 or 10 s, depending on the experiment, after which the cells were rapidly filtered over a glass microfiber filter (Whatman GF/C) and washed three times with ice-cold dH2O. The loaded filter was transferred to a scintillation vial containing 3 mL liquid scintillation cocktail (Ultima-Flo M, Perkin Elmer) and counted using the Hidex 300 SL. Three blank measurements per strain were typically included to account for background signal, for which the cells were first quenched before adding the radioactive label.

[4] = system: A549 lung adenocarcinoma cells; test: A549 cell proliferation / growth inhibition; format: cell-based, human
Outline: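 A549 growth screened in RPMI with 1 mM glucose, compounds at 50 μM; cell number from counts of Hoechst-stained nuclei after 3 days. Growth curves also followed by IncuCyte phase-contrast confluency over 3–5 days (1000–1500 cells/well), DMSO ≤0.1%, ≥4 technical repeats.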

tps1Δ cells = test: Growth rescue of tps1Δ strain on glucose (growth curves, 2% galactose medium); format: cell-based, S. cerevisiae
Outline: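 tps1Δ yeast pregrown in Complete Synthetic medium with 2% galactose, washed, resuspended to OD 0.1; compounds added 10 min before glucose. Growth followed as OD595 every 30 min at 30 °C in at least three technical replicates.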

Cc1nc(Sc2nnc3n2CCCCC3)c2c(-c3cccs3)csc2n1 [WBC-A] was tested, and the “Proliferation of U266 cell line” value [1] was “inhibit proliferation”, the “Glucose consumption and lactate production in KMS-12-PE cells” value [2] was “did not cause inhibition” and the IC50 (yeast Hxt7) was 12.9 µM. For the same compound, the “Fructose uptake at tracer concentration, hxk2Δ hxk1Δ GLK1 cells” value ([3]; 50 μM WBC-A) was “little inhibition of fructose uptake”, the “Glucose uptake at tracer concentration, hxk2Δ hxk1Δ GLK1 cells” value ([3]; 50 μM WBC-A) was “strong inhibition of glucose uptake” and the “Inhibition of glucose uptake rate, hxk1Δ hxk2Δ glk1Δ strain” value ([3]; 1 mM glucose) was “little further inhibition”. The “Inhibition of glucose uptake rate, strain expressing active Hxk2” value ([3]; 1 mM glucose, HXK2 hxk1Δ glk1Δ) was “strong reduction in glucose uptake rate”, the inhibition at 50 µM ([3]; read-out: Inhibition of fructose transport, strain expressing only GLK1) was roughly 30% and the inhibition at 50 µM ([3]; read-out: Inhibition of fructose transport, strain only expressing HXK2) was greater than 75%. The “Potency in reducing maximal growth rate of A549 cells” value ([4]; 1 mM glucose, 6.25-50 μM) was “intermediate potency”, the “Proliferation of A549 cells in RPMI medium with 1 mM or 5 mM glucose” value ([4]; 12.5-50 μM WBC-A) was “dose-dependent inhibition of growth” and the “Rescue of tps1Δ growth on galactose in the presence of 5 mM glucose” value (tps1Δ cells; 100 μM WBC-A, 5 mM glucose) was “rescued growth”. For the same compound, the “Rescue of tps1Δ growth in the presence of 7.5 mM glucose” value (tps1Δ cells; 100 μM WBC-A, 7.5 mM glucose) was “not able to restore growth”, the “Growth of tps1Δ cells on galactose in the absence of glucose” value (tps1Δ cells; 100 μM WBC-A, 2% galactose) was “significant growth delay” and the “Minimal rescue concentration for growth of tps1Δ cells on 2.5 mM glucose” value (tps1Δ cells; 2.5 mM glucose) was 25 µM.
